Legend:
MDA-MB-468 = assay: CellTiter-Glow Luminescent Cell Viability assay, MDA-MB-468 (breast); assay type: cell-based; conditions: Homo sapiens, 72 h, absolute IC50 (T/C=50%), read-out: IC50 against MDA-MB-468
Protocol: (§1) Antitumor activity of the compounds and doxorubicin as a positive control was assessed by using the CellTiter-Glow® Luminescent Cell Viability assay (Promega #G7572) according to the manufacturer's instructions. The compounds were tested at 5 or 6 concentrations in half-log increments (highest concentration 30 μM or 100 μM) in duplicate or triplicate well conditions.
(§2) Tumor cells were grown at 37° C. in a humidified atmosphere with 5% CO2 in RPMI 1640 or DMEM medium, supplemented with 10% (v/v) fetal calf serum and 50 μg/ml gentamicin for up to 20 passages, and were passaged once or twice weekly. Cells were harvested using TrypLE or PBS buffer containing 1 mM EDTA, and the percentage of viable cells was determined using a CASY Model TI cell counter (OMNI Life Science). Cells were harvested from exponential phase cultures, counted and plated in 96 well flat-bottom microtiter plates at a cell density depending on the cell line's growth rate (4,000-20,000 cells/well depending on the cell line's growth rate, up to 60,000 for hematological cancer cell lines) in RPMI 1640 or DMEM medium supplemented with 10% (v/v) fetal calf serum and 50 μg/ml gentamicin (140 μl/well). […] Viability of cells was quantified by or CellTiter-Glow® Luminescent Cell Viability assay (Promega #G7572). Luminescence was measured with a microplate luminometer (Promega or PerkinElmer. […]

[1] = In vivo tolerability, maximum tolerated dose in nude mice
Protocol: To assess the toxicity of the test compounds in vivo and to determine the maximum tolerated dose 4 BALB/c Nude male mice, 4-9 weeks old were injected intraperitoneally (i.p) with various doses of the drug or vehicle 2.5% DMSO/5% EtOH/20% PEG200 in saline. The volume of the injection was 5 ml/kg. The administered doses were confirmed by LC-UV or LC-MS/MS.
Mice were monitored for body weight before each injection and twice a day for clinical signs of toxicity.
All procedures related to animal handling, care and the treatment in the study were performed according to the guidelines of the Association for Assessment and Accreditation of Laboratory Animal Care (AAALAC).
In order to assess the in vivo toxicity of SND350 various doses of the drug were administered either as a single dose or repeat doses into nude mice.

Farage = assay: CellTiter-Glow Luminescent Cell Viability assay, Farage (lymphoma); assay type: cell-based; conditions: 72 h, absolute IC50 (T/C=50%), read-out: IC50 against Farage
Protocol: as §1, §2

[2] = tested on: breast and colon carcinomas, lymphoma and melanoma cancer cell growth; assay: CellTiter-Glow cell viability assay, cancer cell line panel (summary statement); assay type: cell-based; conditions: lymphoma and melanoma cell lines of Table 2, read-out: IC50s, cancer cell growth inhibition
Protocol: as §1, §2

A2058 = assay: CellTiter-Glow Luminescent Cell Viability assay, A2058 (melanoma); assay type: cell-based; conditions: Homo sapiens, 72 h, absolute IC50 (T/C=50%), read-out: IC50 against A2058
Protocol: as §1, §2

KM12 = assay: CellTiter-Glow Luminescent Cell Viability assay, KM12 (colon); assay type: cell-based; conditions: Homo sapiens, 72 h, absolute IC50 (T/C=50%), read-out: IC50 against KM12
Protocol: as §1, §2

A375 = assay: CellTiter-Glow Luminescent Cell Viability assay, A375 (melanoma); assay type: cell-based; conditions: Homo sapiens, A-375, 72 h, absolute IC50 (T/C=50%), read-out: IC50 against A375
Protocol: as §1, §2

U937 = assay: CellTiter-Glow Luminescent Cell Viability assay, U937 (lymphoma); assay type: cell-based; conditions: Homo sapiens, U-937, 72 h, absolute IC50 (T/C=50%), read-out: IC50 against U937
Protocol: as §1, §2

SK-Mel-5 = assay: CellTiter-Glow Luminescent Cell Viability assay, SK-Mel-5 (melanoma); assay type: cell-based; conditions: Homo sapiens, 72 h, absolute IC50 (T/C=50%), read-out: IC50 against SK-Mel-5
Protocol: as §1, §2

**Q.** Which IC50 (MDA-MB-468) does the source give for `COc1c(O)cc(O)c2c(=O)cc(-c3ccc(CCCCC[P+](c4ccccc4)(c4ccccc4)c4ccccc4)cc3)oc12.[Br-]` [SND350, (5-(4-(5,7-dihydroxy-8-methoxy-4-oxo-4H-chromen-2-yl)phenyl)pentyl)triphenylphosphonium bromide] here?
**A.** 2800 nM

**Q.** What about the “tolerability of multiple administrations” value ([1]; i.p., qod for a total of 7 injections, 10 mg/kg/inj) of the same molecule?
**A.** well tolerated

**Q.** What about the MTD ([1]; male, BALB/c Nude, mouse, in vivo, ip, single i.p. administration) of the same molecule?
**A.** 40 mg/kg

**Q.** What about the IC50 (Farage) of the same molecule?
**A.** 800 nM

**Q.** What about the IC50 [2] of the same molecule?
**A.** < 10000 nM

**Q.** And the IC50 (A2058)?
**A.** 6500 nM

**Q.** What about the IC50 (KM12) of the same molecule?
**A.** 2800 nM

**Q.** And the IC50 (A375)?
**A.** 8900 nM

**Q.** And the IC50 (U937)?
**A.** 2900 nM

**Q.** What about the IC50 (SK-Mel-5) of the same molecule?
**A.** 2100 nM

— patent US20240101585A1, “HETEROAROMATIC PHOSPHONIUM SALTS AND THEIR USE TREATING CANCER” (FLORATEK PHARMA AG, priority 2021, published 2024)
